Where “and” joins values, the source holds several entries; their conditions need not be identical. Identical values can stand only once. Like-named read-outs stand apart in the source and are kept apart here.
Tests used:
[1] = tested on: ADDP ovarian variant (cisplatin-resistant A2780 clone); parameters: method as in PMID 36296713, PMID 36142383; settings: cited from earlier work
[2] = tested on: ADDP ovarian variant (cisplatin-resistant A2780 clone); assay: MTT growth inhibition, 72 h, ADDP; assay type: cell-based; settings: ADDP, MTT, 72 h
MCF7 breast = assay: MTT growth inhibition, 72 h, MCF7; assay type: cell-based; settings: for GI50: MCF7, MTT, 72 h
SJG2 glioblastoma = assay: MTT growth inhibition, 72 h, SJG2; assay type: cell-based
MIA pancreas = assay: MTT growth inhibition, 72 h, MIA; assay type: cell-based
H460 lung = assay: MTT growth inhibition, 72 h, H460; assay type: cell-based; settings: H460, MTT, 72 h
[3] = Reduction with ascorbic acid (AsA) in PBS followed by 1H-NMR and 1D-195Pt-NMR; assay type: physicochemical; settings: 37 °C; for Reduction Times T50%: estimated 50% reduction; for Reduction Times T50% / Reduction Times T100%: PBS in D2O; for Reduction Times T100%: estimated 100% reduction; for time of complete reduction to platinum(II) precursor: final 1D-195Pt-NMR at 400 ppm
Protocol: The reduction behaviour of 1–6 was probed via ^1H-NMR and 1D-^195Pt-NMR spectroscopy, as previously described (see Supplementary Materials).
The reduction behaviour of 1–6 was monitored by ^1H-NMR and 1D-^195Pt-NMR spectroscopy using previously established methods. Prior to the reduction measurements, each metal complex was dissolved with PBS in D2O only.
Based on the initial 1D-^195Pt-NMR spectra acquired (Figures S62 and S63), the structural integrity of the complexes was retained, and no signs of reduction were observed, thus also confirming that the PBS had no effect on the complexes. Subsequently, AsA was added in each solution containing the metal complex, PBS and D2O. Then, sequential ^1H-NMR experiments were undertaken for 1 h, followed by final 1D-^195Pt-NMR experiments measured within the regions of 400 and −2800 ppm (Figures S64–S75). The approximate time points for 1–6 at which an estimated 50 and 100% reduction had occurred, in the presence of AsA, as represented by T50% and T100%, are summarised in Table 8.
A sequence of 1H-NMR experiments was carried out for 1 h at 37 °C, followed by 1D-195Pt-NMR within the regions of –2800 and 400 ppm. An amount of 10 mM PBS (~7.4 pH) was transferred to a vial and reduced to dryness through rotary evaporation. AsA (~1 mg) was combined with the metal complex (~5 mg) and transferred to the vial containing the dried PBS. 600 μL of D2O was then added to the vial to dissolve the complex, AsA and the PBS together. Each reaction was followed at 37 °C until the complete reduction […]
The cell lines tested were: HT29 colon, U87 glioblastoma, MCF-7 breast, A2780 ovarian, H460 lung, A431 skin, Du145 prostate, BE2-C neuroblastoma, SJ-G2 glioblastoma, MIA pancreas, ADDP ovarian variant, and the non-tumour derived MCF10A breast line. In […]
agents were prepared in DMSO (30 mM stock solutions) and stored at −20 °C until use.
All cell lines were cultured in a humidified atmosphere 5% carbon dioxide at 37 °C. The cancer cell lines were maintained in Dulbecco’s modified Eagle’s medium (DMEM) (Trace Biosciences, Sydney, NSW, Australia) supplemented with 10% foetal bovine serum, 10 mM sodium bicarbonate penicillin (100 IU mL−1), streptomycin (100 μg mL−1) and glutamine (4 mM). The non-cancer MCF10A cell line was cultured in DMEM:F12 (1:1) cell culture media, 5% heat inactivated horse serum, supplemented with penicillin (50 IU mL−1), streptomycin (50 μg mL−1), 20 mM 4-(2-hydroxyethyl)-1-piperazineethanesulfonic acid (HEPES), L-glutamine (2 mM), epidermal growth factor (20 ng mL−1), hydrocortisone (500 ng mL−1), cholera toxin (100 ng mL−1) and insulin (10 μg mL−1). Cytotoxicity was determined by plating cells in duplicate in […] medium at a density of 2500 – 4000 cells per well in 96 well plates. On day 0 (24 h after plating) when the cells were in logarithmic growth, 100 μL of medium with or without the test agent

A2780 ovarian = assay: MTT growth inhibition, 72 h, A2780; assay type: cell-based
A431 skin = assay: MTT growth inhibition, 72 h, A431; assay type: cell-based
HT29 colon cells = assay: ROS production, DCFDA/H2DCFDA cellular ROS assay; assay type: cell-based, human; settings: treatment at GI50 concentration (TBHP positive control 20 μM)
Protocol: To determine the presence of ROS in treated cells, a DCFDA/H2DCFDA-cellular ROS Assay Kit (Abcam, Cambridge, MA, USA) was utilised, as previously reported. The ROS potential of platinum(II) precursors and platinum(IV) scaffolds, which were determined using the same method, were also presented in this study for comparison.
Additionally, the ROS potential of the platinum(II) precursors and platinum(IV) scaffolds was determined previously and was presented here to allow for comparison (Table 10 and Figure 13). […] Treatment with the complexes and ligands was completed at each specific GI50 concentration. […]
dimethylthiazol-2-yl]-2,5-diphenyltetrazolium bromide) assay and absorbance was read at 540 nm. An eight-point dose response curve was produced from which the GI50 value was calculated, representing the drug concentration at which cell growth was inhibited by 50% based on the difference between the optical density values on day 0 and those at the end of drug exposure.
4. Reactive Oxygen Species (ROS) Potential
A total of 25,000 cells/mL of HT29 cells in DMEM were seeded in 96-well plates. Cells were washed with 1X kit buffer, and then stained with 25 μM 2’,7’-dichlorofluorescein diacetate (DCFH-DA) and incubated for 45 min. DCFH-DA was then removed, and cells were then re-washed with 1X kit buffer, after which phenol red free media was added.
Cells were then treated with a GI50 drug concentration for each complex. The plates were directly scanned to measure fluorescence (relative fluorescence units (RFU)) at different time points using the Glo-Max®-Multimode microplate reader (Promega Corporation, Alexandra, VIC, Australia) at an excitation/emission of 485/535 nm. […]

[4] = tested on: non-tumour derived MCF10A breast line; assay: MTT growth inhibition, 72 h, MCF10A; assay type: cell-based
U87 glioblastoma = assay: MTT growth inhibition, 72 h, U87; assay type: cell-based
multiple cell lines = assay: MTT growth inhibition, over all cell lines tested; assay type: cell-based
HT29 colon = assay: MTT growth inhibition, 72 h, HT29; assay type: cell-based, human
MCF10A / Du145 = assay: Selectivity cytotoxicity index (GI50 in MCF10A/GI50 in Du145); settings: GI50 in MCF10A/GI50 in Du145
[5] = mean over all cell lines tested, read-out: Mean GI50 Values
[6] = all cell lines, MTT, 72 h, read-out: GI50 values over the cell lines tested

Structure (SMILES)	GI50 [1] [nM]	GI50 [2] [nM]	GI50 (MCF7 breast) [nM]	GI50 (SJG2 glioblastoma) [nM]	GI50 (MIA pancreas) [nM]	GI50 (H460 lung) [nM]	Reduction Times T50% [3] [min]	Reduction Times T100% [3]	GI50 (A2780 ovarian) [nM]	GI50 (A431 skin) [nM]	ROS Production (HT29 colon cells; HT29, 24 h) [RFU]	ROS Production (HT29 colon cells; HT29, 48 h) [RFU]	ROS Production (HT29 colon cells; HT29, 72 h)	GI50 [4] [nM]	GI50 (U87 glioblastoma) [nM]	GI50 (multiple cell lines; [5]) [nM]	GI50 (HT29 colon) [nM]	further results
Cc1cc2c3c4c1=CC=C[N]4[Pt+2][N]3C=CC=2.N[C@H]1CCCC[C@@H]1N [Complex 5MESS]	34 ± 2	–	–	–	–	–	–	–	–	–	–	–	–	–	–	–	–	–
Cc1c(C)c2cccnc2c2ncccc12.N[C@H]1CCCC[C@@H]1N.[Pt] [Complex 56MESS, [Pt^II(5,6-Me2phen)(SS-DACH)]^2+]	13 ± 2	–	–	–	–	–	–	–	–	–	–	–	–	–	–	–	–	–
C1=C[N]2[Pt+2][N]3C=CC=c4ccc(c2c43)=C1.N[C@H]1CCCC[C@@H]1N [PHENSS]	190 ± 47	–	–	–	–	–	–	–	–	–	–	–	–	–	–	–	–	–
COc1ccc2cc([C@H](C)C(=O)[O][Pt+2]3([OH])[N]4C=CC=c5cc(C)c6c(c54)[N]3C=CC=6)ccc2c1.N[C@H]1CCCC[C@@H]1N (some centres unmarked) [Complex 2, [Pt^IV(5-Mephen)(SS-DACH)(NPX)(OH)]^2+]	–	280 ± 27	720 ± 240	620 ± 43	370 ± 54	410 ± 37	10 to 15	post 60 min	290 ± 56	530 ± 180	290 ± 17	261 ± 15	84 RFU and 84 ± 9 RFU	310 ± 12	1330 ± 190	490 ± 75	210 ± 19	time of complete reduction to platinum(II) precursor [3]: ~ 1.5 h
COc1ccc2cc([C@H](C)C(=O)[O][Pt+2]3([OH])[N]4C=CC=c5c(C)c(C)c6c(c54)[N]3C=CC=6)ccc2c1.N[C@H]1CCCC[C@@H]1N [Complex 3, [Pt^IV(5,6-Me2phen)(SS-DACH)(NPX)(OH)]^2+]	–	25 ± 2	60 ± 22	230 ± 18	47 ± 7	56 ± 5	10 to 15	post 60 min	39 ± 9	75 ± 33	297 ± 21	287 ± 11	104 RFU and 104 ± 15 RFU	36 ± 4	180 ± 23	84 ± 12	28 ± 6	time of complete reduction to platinum(II) precursor [3]: ~ 1.5 h
COc1ccc2c(c1)c(CC(=O)OCC(=O)[O][Pt-2]13([OH])([NH2+][C@H]4CCCC[C@@H]4[NH2+]1)[n+]1cccc4ccc5ccc[n+]3c5c41)c(C)n2C(=O)c1ccc(Cl)cc1 [Complex 4, [Pt^IV(phen)(SS-DACH)(ACE)(OH)]^2+]	–	330 ± 27	840 ± 390	1450 ± 104	490 ± 36	610 ± 80	–	10 to 15 min	350 ± 47	930 ± 490	303 ± 8	298 ± 17	168 RFU and 168 ± 15 RFU	360 ± 29	1720 ± 140	735 ± 58	290 ± 30	fold decrease of GI50 relative to the platinum(IV) scaffold (MCF7 breast): 19 fold; Selectivity Cytotoxicity Index (SCI) (MCF10A / Du145): 2.40; fold difference of mean GI50 compared to platinum(II) precursor (multiple cell lines): 1- to 2 fold
COc1ccc2c(c1)c(CC(=O)OCC(=O)O)c(C)n2C(=O)c1ccc(Cl)cc1 [ACE, acemetacin]	–	–	–	–	> 50000	–	–	–	–	–	279 ± 7	260 ± 9	132 ± 13 RFU	–	> 50000	> 50000	–	GI50 ([2]; Cisplatin-resistant A2780): > 50000 nM; GI50 (MCF7 breast; Homo sapiens): > 50000 nM; GI50 (SJG2 glioblastoma; SJ-G2): > 50000 nM; GI50 (H460 lung; Homo sapiens, NCI-H460): > 50000 nM; GI50 (A2780 ovarian; Homo sapiens): > 50000 nM; GI50 (A431 skin; Homo sapiens, A-431): > 50000 nM; GI50 ([4]; Homo sapiens, MCF-10A): > 50000 nM; GI50 (multiple cell lines; [6]): > 50000 nM; GI50 (HT29 colon; Homo sapiens, HT-29): > 50000 nM
COc1ccc2cc([C@H](C)C(=O)O)ccc2c1 [NPX, naproxen]	–	–	–	–	> 50000	–	–	–	–	–	187 ± 12	178 ± 13	15 ± 5 RFU	–	> 50000	> 50000	–	GI50 ([2]; Cisplatin-resistant A2780): > 50000 nM; GI50 (MCF7 breast; Homo sapiens): > 50000 nM; GI50 (SJG2 glioblastoma; SJ-G2): > 50000 nM; GI50 (H460 lung; Homo sapiens, NCI-H460): > 50000 nM; GI50 (A2780 ovarian; Homo sapiens): > 50000 nM; GI50 ([4]; Homo sapiens, MCF-10A): > 50000 nM; GI50 (multiple cell lines; [6]): > 50000 nM; GI50 (HT29 colon; Homo sapiens, HT-29): > 50000 nM
N.N.[Cl][Pt][Cl] [Cisplatin, cis-diamminedichloroplatinum(II)]	28000	–	–	–	–	–	–	–	–	–	299 ± 25	370 ± 22	392 ± 21 RFU	–	–	–	–	–
COc1ccc2cc([C@H](C)C(=O)[O][Pt+2]3([OH])[N]4C=CC=c5ccc6c(c54)[N]3C=CC=6)ccc2c1.N[C@H]1CCCC[C@@H]1N [Complex 1, [Pt^IV(phen)(SS-DACH)(NPX)(OH)]^2+]	–	400 ± 19	1120 ± 342	1570 ± 67	660 ± 100	860 ± 124	20 to 25	post 60 min	420 ± 50	1020 ± 390	235 ± 23	215 ± 19	63 RFU and 63 ± 7 RFU	450 ± 24	2570 ± 440	931 ± 139	400 ± 23	–

From article PMC10177380 (Cancers, 2023)
